Values quoted from earlier work as cited in patent US10624840B2, “Method for performing cosmetic surgical procedures using tumescent anesthesia and oral sedation” (priority 2017, dated 2020).

Tested on: patient
Settings: oral

O=C1Nc2ccc(Cl)cc2C(c2ccccc2Cl)=NC1O (stereo not shown) [Lorazepam, lorazepam]
duration of lasting effects on a patient: 10 to 20 h
